Source: US11279697B2, “Aromatic derivative, preparation method for same, and medical applications thereof” (BIOARDIS LLC, priority 2017, dated 2022)

These compounds were tested against human FGFR4 protein (460-802 amino acids) (Homo sapiens (Human), UniProt P22455) (assay: FGFR4 Activity Inhibition Test (HTRF KinEASE-TK in vitro kinase assay)). Settings: compound-enzyme incubation 60 min at room temperature, kinase reaction 37° C. 40 min, 10 concentration points.
Assay type: biochemical
Procedure: The influence of the compound of the present invention on the activity of the tyrosine kinase FGFR4 was evaluated by an in vitro kinase assay experiment. The experimental method is summarized as follows: A HTRF® KinEASE™-TK 20000 tests kinase assay kit from CISBIO Corp. was used. The kit provided a biotin-labeled substrate, an EU-labeled phosphorylation site-specific antibody, and XL665-labeled avidin and a related buffer. FGFR4 phosphorylated the substrate, Eu-Ab identified the phosphorylated substrate, and XL665-SA binded to the biotin on the substrate, making Eu get closer to XL665, thus generating the HTRF signal. Changes in the activity of kinase was detected by reading the intensity of the HTRF signal. In the kinase assay experiment, there were mainly two steps of reaction: kinase reaction and assay reaction, respectively. In the kinase reaction, the kinase consumed ATP to phosphorylate the substrate, and at the same time produced a substrate containing a phosphate group. In the assay reaction, an assay reagent was added to terminate the kinase reaction. At the same time, the specific antibody and the XL665-labeled avidin in the assay reagent were binded to the phosphate group on the substrate and biotin respectively to generate HTRF signals. The signal intensity was directly proportional to the phosphorylation level of the substrate, and thereby the activity of the kinase FGFR4 could be quantitatively assayed. During the assay, the binding and incubation of the compound with the enzyme was carried out at room temperature for 60 min. The kinase reaction was carried out at a constant temperature of 37° C. for 40 min. […] The kinase substrates were TK (commercially available from Cisbio) and ATP (Sigma). The optical signals were read by a microplate reader TECAN Spark 10M plate reader (TECAN). The kinase reaction buffer comprised 1× Enzymatic buffer (CISBIO) 5 mM MgCl2 (Sigma) and 1 mM DTT (Sigma). […] First, the compound was dissolved and diluted with 100% DMSO into a 96-well plate at 3 concentrations: 4 mM, 40 μM, and 0.4 μM. […] Each concentration point was provided with two copy holes (starting point 10 μM, 3-fold dilution). First, 6 μL of the kinase solution was added into the 384-well assay plate, mixed uniformly and then incubated at room temperature for 60 min. Then 4 μL of the substrate reaction solution was added, and the total reaction volume was 10 μL. […] Subsequently, 10 μL of the kinase assay reagent was added and the reaction was terminated. Then the numerical values were read on the TECAN plate reader. The inhibition percentage was calculated based on the following formula: % inhibition=[1−(RLUcompound−RLUmin)/(RLUmax−RLUmin)]×100 wherein RLUcompound is the luminescence reading at the given compound concentration, RLUmin is the luminescence reading without the addition of kinase, and RLUmax is the luminescence reading without the addition of the compound. IC50 of the compound was calculated by the XLfit program in Excel.

human FGFR4 protein (460-802 amino acids), sequence (P22455 460-802): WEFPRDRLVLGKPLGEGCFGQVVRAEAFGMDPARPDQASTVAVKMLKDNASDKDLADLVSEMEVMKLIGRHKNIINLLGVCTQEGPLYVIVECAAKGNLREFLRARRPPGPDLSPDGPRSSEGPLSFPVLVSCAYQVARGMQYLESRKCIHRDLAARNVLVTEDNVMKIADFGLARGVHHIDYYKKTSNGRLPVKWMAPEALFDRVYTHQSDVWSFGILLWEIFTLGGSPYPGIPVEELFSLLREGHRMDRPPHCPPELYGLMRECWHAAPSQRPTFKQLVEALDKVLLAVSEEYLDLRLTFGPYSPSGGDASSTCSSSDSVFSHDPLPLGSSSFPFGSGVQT

| IC50 [nM] | SMILES |
| --- | --- |
| 6 | C=CC(=O)Nc1cnn(C)c1-c1n[nH]c2c1CC[C@@H](c1c(F)c(OC)cc(OC)c1Cl)C2 (single isomer, unassigned) [Compound 303-P1, N-(5-(6-(2-chloro-6-fluoro-3,5-dimethoxyphenyl)-4,5,6,7-tetrahydro-1H-indazol-3-yl)-1-methyl-1H-pyrazol-4-yl)acrylamide] |
| 3.4 | C=CC(=O)Nc1ccc(N2CCN(C)CC2)cc1-c1n[nH]c2c1CC[C@@H](c1c(F)c(OC)cc(OC)c1F)C2 (single isomer, unassigned) [Compound 301-P1, N-(2-(6-(2,6-difluoro-3,5-dimethoxyphenyl)-4,5,6,7-tetrahydro-1H-indazol-3-yl)-4-(4-methylpiperazin-1-yl)phenyl)acrylamide] |
| 5.5 | C=CC(=O)Nc1cnn(C)c1-c1n[nH]c2c1CC[C@@H](c1c(F)c(OC)cc(OC)c1Cl)C2 (single isomer, unassigned) [Compound 303-P2, N-(5-(6-(2-chloro-6-fluoro-3,5-dimethoxyphenyl)-4,5,6,7-tetrahydro-1H-indazol-3-yl)-1-methyl-1H-pyrazol-4-yl)acrylamide] |
| 203 | C=CC(=O)Nc1cnn(C)c1-c1n[nH]c2c1CC[C@@H](c1cc(OC)cc(OC)c1Cl)C2 (single isomer, unassigned) [Compound 311-P1, N-(5-(6-(2-chloro-3,5-dimethoxyphenyl)-4,5,6,7-tetrahydro-1H-indazol-3-yl)-1-methyl-1H-pyrazol-4-yl)acrylamide] |
| 129 | C=CC(=O)Nc1cnn(C)c1-c1n[nH]c2c1CC[C@@H](c1cc(OC)cc(OC)c1Cl)C2 (single isomer, unassigned) [Compound 311-P2, N-(5-(6-(2-chloro-3,5-dimethoxyphenyl)-4,5,6,7-tetrahydro-1H-indazol-3-yl)-1-methyl-1H-pyrazol-4-yl)acrylamide] |
| 85.5 | C=CC(=O)Nc1cnn(C)c1-c1n[nH]c2c1CC[C@@H](c1cc(OC)cc(OC)c1F)C2 (single isomer, unassigned) [Compound 302-P1, N-(5-(6-(2-fluoro-3,5-dimethoxyphenyl)-4,5,6,7-tetrahydro-1H-indazol-3-yl)-1-methyl-1H-pyrazol-4-yl)acrylamide] |
| 446 | C=CC(=O)Nc1cnn(C)c1-c1n[nH]c2c1CC[C@@H](c1cc(OC)cc(OC)c1)C2 (single isomer, unassigned) [Compound 310-P1, N-(5-(6-(3,5-dimethoxyphenyl)-4,5,6,7-tetrahydro-1H-indazol-3-yl)-1-methyl-1H-pyrazol-4-yl)acrylamide] |
| 35.4 | C=CC(=O)Nc1cnn(C)c1-c1n[nH]c2c1CC[C@@H](c1cc(OC)cc(OC)c1F)C2 (single isomer, unassigned) [Compound 302-P2, N-(5-(6-(2-fluoro-3,5-dimethoxyphenyl)-4,5,6,7-tetrahydro-1H-indazol-3-yl)-1-methyl-1H-pyrazol-4-yl)acrylamide] |
| 171 | C=CC(=O)Nc1cnn(C)c1-c1n[nH]c2c1CC[C@@H](c1cc(OC)cc(OC)c1)C2 (single isomer, unassigned) [Compound 310-P2, N-(5-(6-(3,5-dimethoxyphenyl)-4,5,6,7-tetrahydro-1H-indazol-3-yl)-1-methyl-1H-pyrazol-4-yl)acrylamide] |
| 11.8 | C=CC(=O)Nc1ccc(N2CCN(C)CC2)cc1-c1n[nH]c2c1CC[C@@H](c1c(F)c(OC)cc(OC)c1F)C2 (single isomer, unassigned) [Compound 301-P2, N-(2-(6-(2,6-difluoro-3,5-dimethoxyphenyl)-4,5,6,7-tetrahydro-1H-indazol-3-yl)-4-(4-methylpiperazin-1-yl)phenyl)acrylamide] |

The remaining lines, values behind:

| SMILES | IC50 [nM] |
| --- | --- |
| C=CC(=O)Nc1ccc(F)cc1-c1n[nH]c2c1CCC(c1c(Cl)c(OC)cc(OC)c1Cl)=C2 [Compound 297, N-(2-(6-(2,6-dichloro-3,5-dimethoxyphenyl)-4,5-dihydro-1H-indazol-3-yl)-4-fluorophenyl)acrylamide] | 236 |
| C=CC(=O)Nc1ccc(N2CCOCC2)cc1-c1n[nH]c2c1CCC(c1c(Cl)c(OC)cc(OC)c1Cl)=C2 [Compound 300, N-(2-(6-(2,6-dichloro-3,5-dimethoxyphenyl)-4,5-dihydro-1H-indazol-3-yl)-4-morpholinophenyl)acrylamide] | 504 |
| C=CC(=O)Nc1ccc(N2CCN(C)CC2)cc1-c1n[nH]c2c1CC[C@@H](c1c(Cl)c(OC)cc(OC)c1Cl)C2 (single isomer, unassigned) [Compound 283-P1, N-(2-(6-(2,6-dichloro-3,5-dimethoxyphenyl)-4,5,6,7-tetrahydro-1H-indazol-3-yl)-4-(4-methylpiperazin-1-yl)phenyl)acrylamide] | 190 |
| CC#CC(=O)Nc1ccccc1-c1cc(CCc2c(Cl)c(OC)cc(OC)c2Cl)[nH]n1 [Compound 096, N-(2-(5-(2,6-dichloro-3,5-dimethoxyphenethyl)-1H-pyrazol-3-yl)phenyl)but-2-ynoic amide] | 348 |
| C=CC(=O)Nc1ccc(N2CCN(C)CC2)cc1-c1n[nH]c2c1CC[C@@H](c1c(Cl)c(OC)cc(OC)c1Cl)C2 (single isomer, unassigned) [Compound 283-P2, N-(2-(6-(2,6-dichloro-3,5-dimethoxyphenyl)-4,5,6,7-tetrahydro-1H-indazol-3-yl)-4-(4-methylpiperazin-1-yl)phenyl)acrylamide] | 45 |
| C=CC(=O)Nc1ccc(Cl)cc1-c1n[nH]c2c1CC[C@@H](c1c(Cl)c(OC)cc(OC)c1Cl)C2 (single isomer, unassigned) [Compound 287-P1, N-(4-chloro-2-(6-(2,6-dichloro-3,5-dimethoxyphenyl)-4,5,6,7-tetrahydro-1H-indazol-3-yl)phenyl)acrylamide] | 158 |
| C=CC(=O)Nc1ccccc1-c1n[nH]c2c1CCC(c1c(F)c(OC)cc(OC)c1F)C2 (stereo not drawn) [Compound 093, N-(2-(6-(2,6-difluoro-3,5-dimethoxyphenyl)-4,5,6,7-tetrahydro-1H-indazol-3-yl)phenyl)acrylamide] | 29.2 |
| C=CC(=O)Nc1cnn(C)c1-c1n[nH]c2c1CC[C@@H](c1c(F)c(OC)cc(OC)c1F)C2 (single isomer, unassigned) [Compound 281-P1, N-(5-(6-(2,6-difluoro-3,5-dimethoxyphenyl)-4,5,6,7-tetrahydro-1H-indazol-3-yl)-1-methyl-1H-pyrazol-4-yl)acrylamide] | 5.73 |
| C=CC(=O)Nc1ccc(Cl)cc1-c1n[nH]c2c1CC[C@@H](c1c(Cl)c(OC)cc(OC)c1Cl)C2 (single isomer, unassigned) [Compound 287-P2, N-(4-chloro-2-(6-(2,6-dichloro-3,5-dimethoxyphenyl)-4,5,6,7-tetrahydro-1H-indazol-3-yl)phenyl)acrylamide] | 91.1 |
| C=CC(=O)Nc1cc(F)ccc1-c1n[nH]c2c1CCC(c1c(Cl)c(OC)cc(OC)c1Cl)=C2 [Compound 296, N-(2-(6-(2,6-dichloro-3,5-dimethoxyphenyl)-4,5-dihydro-1H-indazol-3-yl)-5-fluorophenyl)acrylamide] | 118 |
| C=CC(=O)Nc1cnn(C)c1-c1n[nH]c2c1CC[C@@H](c1c(F)c(OC)cc(OC)c1F)C2 (single isomer, unassigned) [Compound 281-P2, N-(5-(6-(2,6-difluoro-3,5-dimethoxyphenyl)-4,5,6,7-tetrahydro-1H-indazol-3-yl)-1-methyl-1H-pyrazol-4-yl)acrylamide] | 2.96 |
| C=CC(=O)Nc1cc(Cl)ccc1-c1n[nH]c2c1CC[C@@H](c1c(Cl)c(OC)cc(OC)c1Cl)C2 (single isomer, unassigned) [Compound 289-P1, N-(5-chloro-2-(6-(2,6-dichloro-3,5-dimethoxyphenyl)-4,5,6,7-tetrahydro-1H-indazol-3-yl)phenyl)acrylamide] | 109 |
| C=CC(=O)Nc1ccccc1-c1n[nH]c2c1CCC(c1cc(OC)cc(OC)c1F)C2 (stereo not drawn) [Compound 114, N-(2-(6-(2-fluoro-3,5-dimethoxyphenyl)-4,5,6,7-tetrahydro-1H-indazol-3-yl)phenyl)acrylamide] | 158 |
| C=CC(=O)Nc1cc(Cl)ccc1-c1n[nH]c2c1CC[C@@H](c1c(Cl)c(OC)cc(OC)c1Cl)C2 (single isomer, unassigned) [Compound 289-P2, N-(5-chloro-2-(6-(2,6-dichloro-3,5-dimethoxyphenyl)-4,5,6,7-tetrahydro-1H-indazol-3-yl)phenyl)acrylamide] | 210 |
